Test results: patent US20050209278A1, “Piperidinyl- and piperazinyl-sulfonylmethyl hydroxamic acids and their use as protease inhibitors” (priority 2002, published 2005)
Counter-ions that a name gives are not always drawn.

What was measured:
MMP-13 = target: T1, MMP-13 (Homo sapiens, UniProt P45452); assay: In vitro MMP inhibition, IC50 determination (fluorogenic substrate I); type: biochemical; conditions: values in parenthesis; 4 μM substrate I; room temperature
T1 construct: made in house; host or cells: baculovirus / insect cells
Method: (§1) Several hydroxamic acids and salts thereof were analyzed in in vitro assays to determine their ability to inhibit the MMP cleavage of peptide substrates. […] and IC50 constants were calculated from the assayed hydroxamic acid-MMP interactions.
(§2) Human recombinant MMP-1, MMP-2, MMP-9, MMP-13, and MMP-14 were used in this assay. All enzymes were prepared in Assignee's laboratories following usual laboratory procedures. Protocols for the preparation and use of these enzymes are available in the scientific literature. See, e.g., Enzyme Nomenclature (Academic Press, San Diego, Calif., 1992) (and the citations therein). See also, Freije et al., “Molecular cloning and expression of collagenase-3, a novel human matrix metalloproteinase produced by breast carcinomas,” J Biol. Chem., 269(24), 16766-16773 (1994).
The MMP-13 was obtained as a proenzyme from a full-length cDNA clone using baculovirus, as described by V. A. Luckow, “Insect Cell Expression Technology,” Protein Engineering: Principles and Practice, pp. 183-218 (edited by J. L. Cleland et al., Wiley-Liss, Inc., 1996). The expressed proenzyme was first purified over a heparin agarose column, and then over a chelating zinc chloride column. The proenzyme was then activated by APMA for use in the assay. Further details on baculovirus expression systems may be found in, for example, Luckow et al., J. Virol., 67, 4566-79 (1993). See also, O'Reilly et al, Baculovirus Expression Vectors: A Laboratory Manual (W.H. Freeman and Co., New York, N.Y., 1992). See also, King et al., The Baculovirus Expression System: A Laboratory Guide (Chapman & Hall, London, England, 1992).
(§3) All MMPs were activated using 4-aminophenylmercuric acetate (“APMA”, Sigma Chemical, St. Louis, Mo.) or trypsin. MMP-9 also was activated using human recombinant MMP-3 (purified in Assignee's laboratory following standard cloning and purification techniques).
(§4) Two fluorogenic, methoxycoumarin-containing polypeptide substrates were used in the MMP inhibition assays: [drawing 427] Here, “Dpa” is 3-(2,4-dinitrophenyl)-L-2,3-diaminopropionyl group, and “MCA” is 7-methoxycoumarin-4-yl acetyl. Substrate (I) was purchased from Baychem (Redwood City, Calif.), and substrate II was prepared Assignee's laboratory. Substrate I was used in the IC50 determination assays, while substrate II was used in the Ki determination assays. In the absence of MMP inhibitory activity, either substrate is cleaved at the Gly-Leu peptide bond. This cleavage separates the highly fluorogenic peptide from the 2,4-dinitrophenyl quencher, thus resulting in increase of fluorescent intensity.
(§5) The stock solutions of the assayed hydroxamic acids (or salts thereof) were prepared in 1% dimethyl sulfoxide (DMSO). These stock solutions were diluted in Buffer A (100 mM Tris-HCl, 100 mM NaCl, 10 mM CaCl2, 0.05% polyoxyethylene 23 lauryl ether, pH 7.5) to obtain solutions with different hydroxamic acid concentrations, i.e., assay solutions with different concentrations of the assayed MMP inhibitory compound. The experiment controls contained the same amount of Buffer A/DMSO as the assayed sample, but contained no hydroxamic acid (or salt thereof).
The assays from which the IC50 determinations were made were performed as follows. The MMPs were activated with either trypsin or APMA (4-aminophenylmercuric acetate, Sigma Chemical, St. Louis, Mo.). The assayed hydroxamic acid samples were incubated in Microfluor™ White Plates (Dynatech, Chantilly, Va.) and analyzed on a Perkin Elmer L550 plate reader (Norwalk, Conn.). The excitation wavelength was 328 nm, and the emission wavelength—415 nm. All samples (assayed hydroxamic acids and controls) were incubated in separate plates at room temperature in the presence of 4 μM of MMP substrate (I). As stated in the previous paragraph, samples containing varying concentrations of the same assayed hydroxamic acid were prepared. Inhibition was measured as a reduction in fluorescent intensity as a function of MMP inhibitor concentration. […]

MMP-9 = target: T2, MMP-9 (Homo sapiens, UniProt P14780); assay: In vitro MMP inhibition, Ki determination (fluorogenic substrate II); type: biochemical
T2 construct: made in house; host or cells: MMP-9-transfected HT1080 cells (spent media)
Method: as §1, §2
The MMP-9 proenzyme was purified by gelatin Sepharose chromatography from spent media of MMP-9-transfected HT1080 cells provided by Dr. Howard Welgus of Washington University (St. Louis, Mo.).
as §3, §4, §5
The assays from which the Ki determinations were made were performed as follows. The assayed hydroxamic acid samples were incubated in separate wells of untreated white polystyrene plates (Nunc Nalgene International, Rochester, N.Y.), and analyzed on a Tecan SpectraFlour Plus plate reader. The excitation wavelength was 330 nm, and the emission wavelength—420 nm. All samples (assayed hydroxamic acids and controls) were incubated in separate plate wells at room temperature for 1 hr in the presence of 4 μM of MMP substrate (II). In the absence of MMP inhibitory activity, substrate II was cleaved at the Gly-Leu bond resulting in an increase of relative fluorescence. Inhibition was observed as a reduced rate of this increase in relative fluorescence. The various hydroxamic acids were analyzed using a single low enzyme concentration with a single substrate concentration fixed at or below the Km. This protocol is a modification of method by Knight et al., FEBS Lett., 296(3), 263-266 (1992). Apparent inhibitory constants were determined by non-linear regression of reaction velocity as a function of inhibitor and enzyme concentration using Morrison's equation, as described by Kuzmic, Anal. Biochem. 286, 45-50 (2000). Modifications were made in the non-linear regression method to allow a common control reaction rate and effective enzyme concentration to be shared between all dose-response relationships on a given assay plate. […]

[1] = human recombinant enzyme, 4 μM substrate II, room temperature, 1 hr

T2 sequence (P14780 107-707 limits assumed): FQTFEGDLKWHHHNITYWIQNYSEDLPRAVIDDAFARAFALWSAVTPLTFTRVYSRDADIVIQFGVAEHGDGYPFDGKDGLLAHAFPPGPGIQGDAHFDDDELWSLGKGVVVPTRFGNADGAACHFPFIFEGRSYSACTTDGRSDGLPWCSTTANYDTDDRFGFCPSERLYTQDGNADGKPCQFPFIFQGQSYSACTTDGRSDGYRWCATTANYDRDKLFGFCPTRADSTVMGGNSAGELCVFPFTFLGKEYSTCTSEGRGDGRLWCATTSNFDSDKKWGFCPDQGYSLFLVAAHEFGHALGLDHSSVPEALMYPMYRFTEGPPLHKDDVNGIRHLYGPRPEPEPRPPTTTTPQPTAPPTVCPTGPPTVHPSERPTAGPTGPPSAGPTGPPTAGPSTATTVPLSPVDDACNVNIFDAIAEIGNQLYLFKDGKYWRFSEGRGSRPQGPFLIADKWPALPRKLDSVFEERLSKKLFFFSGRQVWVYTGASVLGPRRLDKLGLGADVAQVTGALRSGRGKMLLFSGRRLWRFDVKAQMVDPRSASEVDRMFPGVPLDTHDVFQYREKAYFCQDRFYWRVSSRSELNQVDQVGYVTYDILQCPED

IC50 (MMP-13) [nM] | Ki (MMP-9; [1]) [nM] | Ki (MMP-9; value not in parenthesis) [nM] | SMILES
< 0.1 | 0.108 |  | CCCCc1ccc(N2CCN(S(=O)(=O)C3(C(=O)NO)CCN(CCOC)CC3)CC2)cc1 [Example 5, 4-{[4-(4-butylphenyl)piperazin-1-yl]sulfonyl}-N-hydroxy-1-(2-methoxyethyl)piperidine-4-carboxamide Dihydrochloride]
1.3 | 0.97 |  | O=C(NO)C1(S(=O)(=O)N2CCN(c3ccc(OCC4CC4)c(F)c3)CC2)CCN(C2CC2)CC1 [Example 10, 1-cyclopropyl-4-[[4-[4-(cyclopropylmethoxy)-3-fluorophenyl]-1-piperazinyl]sulfonyl]-N-hydroxy-4-piperidinecarboxamide, dihydrochloride]
0.1 | 0.287 |  | CCCCCc1ccc(N2CCN(S(=O)(=O)C3(C(=O)NO)CCN(CCOC)CC3)CC2)cc1 [Example 6, N-Hydroxy-1-(2-methoxyethyl)-4-{[4-(4-pentylphenyl)piperazin-1-yl]sulfonyl}piperidine-4-carboxamide Dihydrochloride]
0.1 | 0.13 |  | CCCCCc1ccc(C2CCN(S(=O)(=O)C3(C(=O)NO)CCN(CCOC)CC3)CC2)cc1 [Example 15, N-hydroxy-1-(2-methoxyethyl)-4-{[4-(4-pentylpheyl)piperidin-1-yl]sulfonyl}piperidine-4-carboxamide Hydrochloride]
 |  | 90 | O=C(NO)C1(S(=O)(=O)N2CCN(c3ccc(SC(F)(F)F)cc3)CC2)CCN(Cc2ccccc2)CC1 [Example 152]
 |  | 5.87 | CCCCOc1ccc(N2CCN(S(=O)(=O)C3(C(=O)NO)CCN(c4ccccn4)CC3)CC2)cc1 [Example 149]
 | 0.93 |  | CCOc1ccc(N2CCN(S(=O)(=O)C3(C(=O)NO)CCOCC3)CC2)cc1 [Example 3, 4-{[4-(4-ethoxyphenyl)piperazinyl]sulfonyl}perhydro-2H-pyran-4-carbohydroxamic Acid]
 | 3.2 |  | CCCCCc1ccc(N2CCN(S(=O)(=O)C3(C(=O)NO)CCN(CC)CC3)CC2)cc1F [Example 22, 1-ethyl-4-{[4-(3-fluoro-4-pentylphenyl)piperazin-1-yl]sulfonyl}-N-hydroxypiperidine-4-carboxamine Hydrochloride]
 |  | 28.3 | O=C1c2ccccc2C(=O)N1CCCCc1ccc(N2CCN(S(=O)(=O)C3(C(=O)NO)CCOCC3)CC2)nc1 [Example 132]
 |  | 1.2 | CCCCOc1ccc(N2CCN(S(=O)(=O)C3(C(=O)NO)CCN(c4ccc(OCCOC)nn4)CC3)CC2)cc1 [Example 129]
 | 8.18 |  | CCCCCc1ccc(N2CCN(S(=O)(=O)C3(C(=O)NO)CCN(C(=O)C(F)(F)F)CC3)CC2)cc1 [Example 21, N-hydroxy-4-{[4-(4-pentylphenyl)piperazin-1-yl]sulfonyl}-1-(trifluoroacetyl)piperidine-4-carboxamide Hydrochloride]
 | 0.54 |  | O=C(NO)C1(S(=O)(=O)N2CCC(c3cnc(OCC(F)(F)C(F)(F)F)cn3)CC2)CCOCC1 [Example 27]
 |  | 7.2 | CCCCOc1ccc(N2CCN(S(=O)(=O)C3(C(=O)NO)CCN(c4ccc(C)cn4)CC3)CC2)cc1 [Example 125]
 |  | 1.01 | CCCCOc1ccc(N2CCN(S(=O)(=O)C3(C(=O)NO)CCN(C(=O)OCCF)CC3)CC2)cc1 [Example 113]
 |  | 27.7 | O=C(NO)C1(S(=O)(=O)N2CCN(c3ccc(OCCCC(F)(F)F)cc3F)CC2)CCOCC1 [Example 117]

SMILES | IC50 (MMP-13) [nM] | Ki (MMP-9; [1]) [nM] | Ki (MMP-9; value not in parenthesis) [nM]
CCCCOc1ccc(N2CCN(S(=O)(=O)C3(C(=O)NO)CCN(CCOC)CC3)CC2)cc1F [Example 11, 4-[[4-(4-butoxy-3-fluorophenyl)-1-piperazinyl]sulfonyl]-N-hydroxy-1-(2-methoxyethyl)-4-piperidinecarboxamide, Dihydrochloride] | 0.8 | 2.67 | 
